Results on three compounds are retold here after PMC3323675 (Biochemistry, 2012).

Assay [1] deals with T1, geranyl diphosphate C-methyltransferase (GPPMT) (Streptomyces coelicolor, UniProt Q9F1Y5). Nature of the assay: X-ray crystal structure, […] Å. The class given is binding. The note with it: with SAH and Mg2+; monomers A, D, H, J only, partial occupancy.
In assay [2] the target is T1, geranyl diphosphate C-methyltransferase (GPPMT). The assay is described as follows: radiometric methyl transfer, pentane extraction, scintillation counting. Type of assay: biochemical. The note with it: 10 mM MgCl2, pH 7.0, 30 °C.
Assay [3] shares this target. The assay is described as follows: X-ray crystal structure, […] Å. Type of assay: binding. The note with it: with SAH and Mg2+; isoprenoid substrate site.

Structures are written as SMILES.

T1 sequence (Q9F1Y5 whole entry): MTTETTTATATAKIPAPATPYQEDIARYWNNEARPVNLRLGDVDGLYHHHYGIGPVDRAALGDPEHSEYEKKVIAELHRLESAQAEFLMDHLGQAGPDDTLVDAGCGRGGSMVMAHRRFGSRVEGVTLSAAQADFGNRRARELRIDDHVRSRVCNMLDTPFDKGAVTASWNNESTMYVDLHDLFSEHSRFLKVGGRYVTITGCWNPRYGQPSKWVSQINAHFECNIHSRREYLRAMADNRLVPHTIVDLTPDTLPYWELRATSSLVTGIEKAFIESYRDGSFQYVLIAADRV

With `CC(C)=CCC/C(C)=C/COP(=O)(O)OP(=O)(O)O` [GPP, geranyl diphosphate], the “X-ray crystal structure, 2.05 Å” value in assay [1] was “sufficient electron density to model GPP is observed only in monomers A, D, H, and J”. The KM entry in assay [2] (60 µM SAM) was “Kinetic parameters (Vmax and KM) were obtained for GPP and SAM”. Regarding `CC(C)=CCC/C(C)=C/CSP(=O)(O)OP(=O)(O)O` [GSPP, geranyl-S-thiolodiphosphate], the “X-ray crystal structure, 1.82 Å” value in assay [3] is “GSPP is bound with full occupancy in all monomers”. As for `C[S+](CC[C@H](N)C(=O)O)C[C@H]1O[C@@H](n2cnc3c(N)ncnc32)[C@H](O)[C@@H]1O` (stereo partly drawn) [SAM, S-adenosyl-L-methionine], the KM result in assay [2] (60 µM GPP, labelled compound) is “Kinetic parameters (Vmax and KM) were obtained for GPP and SAM”.
